We go through seven molecules from EP3024823B1, “INTERCALATING AMINO ACIDS” (priority 2013, dated 2015).

≈ marks a conversion by molar mass, not a printed value.

For one data set, the target named is T1, PylRS_AF (Methanosarcina mazei, UniProt Q8PWY1, Y306A/Y384F).
T1 construct: expressed in transfected cells
Nature of the data set: PylRS_AF-mediated amber suppression in GFP-Y39TAG (GFP expression in E. coli). The format is cell-based. Conditions: for efficiency and accuracy of incorporation into peptides: Figure 2, whole cell fluorescence; for yield of purified GFP-Y39→ncAA / expression of full-length GFP by cellular fluorescence / GFP expression, SDS PAGE of Ni-NTA-purified GFP: E. coli; for yield of purified GFP-Y39→ncAA / expression of full-length GFP by cellular fluorescence: PylRS_AF; for GFP expression, SDS PAGE of Ni-NTA-purified GFP: pREP-PylRS_AF, pBAD_GFP-Y39TAG. The text has this: (§1) Protein Expression and Purification. All proteins were expressed from pBAD vectors and purified using a C-terminal His6 tag. For expression of proteins containing ncAA, E. coli cells were co-transformed with pBAD plasmid containing the target gene with amber codon (pBAD_GFP-39TAG, pBAD_TRX-R74-His6_TAG, pBAD_CmodC or pBAD_TAT, all conferring ampicillin resistance) and a plasmid coding for the respective PylRS mutant and tRNA^Pyl (pEVOL_PylRS_AF, pREP_PylRS_wt, _GF, _AF and PylRS_AF single or double alanine mutants). A single clone was picked and grown in Luria Broth (LB) media supplemented with suited antibiotics at 37 °C and 200 rpm shaking. 0.1 ml of this culture was used to inoculate 5 ml LB supplemented with the same antibiotics and different concentrations of the ncAA. The culture was incubated at 37 °C and 200 rpm shaking until OD600 of ∼0.4 - 0.6 and protein expression was induced with 0.02% (w/v) L-arabinose. The culture was harvested after 4 - 6 h of incubation by centrifugation (10 min, 3320 x g, room temperature). The pellet was lysed with B-Per lysis reagent (Thermo scientific) containing 1x Complete (-EDTA) protease inhibitor cocktail (Roche) and shaking at room temperature at 1400 rpm for 30 min. The suspension was pelleted by centrifugation (5 min, 20817 x g, room temperature) the supernatant was extracted with Ni-NTA agarose slurry (Qiagen) at an imidazole concentration of 10 mM by shaking at room temperature. The beads were washed with 350 µl 4x PBS and or two wash buffers (50 mM NaH2PO4, 300 mM NaCl, pH = 8.0, containing 20 - 50 mM imidazole). Proteins were eluted with elution buffer (50 mM NaH2PO4, 300 mM NaCl, pH = 8.0, containing 500 mM imidazole). For GFP-TAT protein containing ncAA 6, expressions were carried out in BL21 (DE3) gold and purification was conducted as above, but under denaturing conditions (8 M urea). Protein was refolded by stepwise dialysis against 20 mM Tris-HCl, pH = 8.0, 10 % glycerole with decreasing urea concentrations. Purity of the obtained proteins was analyzed by SDS PAGE and staining with Gelcode blue (Thermo Scientific) and quantified using a BCA assay (Pierce, Thermo Scientific). For GFP yield determination based on whole cell fluorescence, cell pellets from 3 ml expressions were washed twice with 3 ml 4x PBS (by centrifugation for 10 min at 3320 x g at room temperature and resuspension) and fluorescence was determined using a Tecan M200 plate reader using and excitation wavelength of 475 nm and an emission wavelength of 510 nm. Fluorescence values were corrected for cell densities based on OD600 - measurements. Generally, expressions were carried out in E. coli Top10 using carbenicillin selection for pEVOL plasmids and tetracyclin selection for pREP plasmids. Wild type thioredoxin and TRX-R74→6 were expressed in E. coli BL21 (DE3) gold cells. Expressed C-terminal fragment of PylRS_AF (aa 188-454) was stored in 10 mM HEPES-Na+, pH = 7.5, 5 mM MgCl2, 300 mM NaCl at -80 °C before use.
Next, the tRNA^Pyl/PylRS pair of Methanosarcina mazei was analyzed for its capability to mediate the selective incorporation of ncAA 3 into proteins in E. coli in response to the amber codon, TAG. E. coli were co-transformed with plasmids pEVOL-PylRS_wt (encoding wild type M. mazei PylRS and tRNA^Pyl) and pBAD_GFP-39TAG (encoding GFP with an amber mutation at position Y39 and a C-terminal His6 tag) and the culture induced with L-arabinose in the presence or absence of 1 mM ncAA 3 or Nε-(tert-butyloxycarbonyl)-L-lysine (Boc-Lys, ncAA 2), which is an efficiently processed substrate of PylRS_wt. However, expression of full-length GFP was only detected for ncAA 2 by cellular fluorescence. […] Among amino acids that constitute the methyl-pyrroline binding pocket of PylRS, Y306 is a main component of the rear part and plays a critical role in discriminating against larger, Nε-carbamate-linked lysine derivatives. […]

Another data set addresses T2, PylRS_wt (Methanosarcina mazei, UniProt Q8PWY1).
T2 construct: expressed in transfected cells
Nature of the data set: PylRS_wt-mediated amber suppression in GFP-Y39TAG (GFP expression in E. coli). The class given is cell-based. Conditions: for expression of full-length GFP by cellular fluorescence: pEVOL-PylRS_wt, pBAD_GFP-39TAG, 1 mM ncAA; for GFP expression, SDS PAGE of Ni-NTA-purified GFP: pREP-PylRS_wt, pBAD_GFP-Y39TAG.
Text: as §1, with “Protein was refolded by stepwise dialysis against 20 mM Tris-HCl, pH = 8.0, 10 % glycerole with decreasing urea concentrations.” left out, “Generally, expressions were carried out in E. coli Top10 using carbenicillin selection for pEVOL plasmids and tetracyclin selection for pREP plasmids. Wild type thioredoxin and TRX-R74→6 were expressed in E. coli BL21 (DE3) gold cells. Expressed C-terminal fragment of PylRS_AF (aa 188-454) was stored in 10 mM HEPES-Na+, pH = 7.5, 5 mM MgCl2, 300 mM NaCl at -80 °C before use.” left out
Next, the tRNA^Pyl/PylRS pair of Methanosarcina mazei was analyzed for its capability to mediate the selective incorporation of ncAA 3 into proteins in E. coli in response to the amber codon, TAG. […] However, expression of full-length GFP was only detected for ncAA 2 by cellular fluorescence. […]

The next data set has as its target T3, PylRS_GF (Methanosarcina mazei, UniProt Q8PWY1, Y306G/Y384F).
T3 construct: expressed in transfected cells
The data set is described as follows: PylRS_GF-mediated amber suppression in GFP-Y39TAG (GFP expression in E. coli). The format is cell-based. As to conditions: pREP-PylRS_GF (Y306G), pBAD_GFP-Y39TAG. An excerpt: (§2) Protein Expression and Purification. All proteins were expressed from pBAD vectors and purified using a C-terminal His6 tag. For expression of proteins containing ncAA, E. coli cells were co-transformed with pBAD plasmid containing the target gene with amber codon (pBAD_GFP-39TAG, pBAD_TRX-R74-His6_TAG, pBAD_CmodC or pBAD_TAT, all conferring ampicillin resistance) and a plasmid coding for the respective PylRS mutant and tRNA^Pyl (pEVOL_PylRS_AF, pREP_PylRS_wt, _GF, _AF and PylRS_AF single or double alanine mutants). A single clone was picked and grown in Luria Broth (LB) media supplemented with suited antibiotics at 37 °C and 200 rpm shaking. 0.1 ml of this culture was used to inoculate 5 ml LB supplemented with the same antibiotics and different concentrations of the ncAA. […] Purity of the obtained proteins was analyzed by SDS PAGE and staining with Gelcode blue (Thermo Scientific) and quantified using a BCA assay (Pierce, Thermo Scientific). For GFP yield determination based on whole cell fluorescence, cell pellets from 3 ml expressions were washed twice with 3 ml 4x PBS (by centrifugation for 10 min at 3320 x g at room temperature and resuspension) and fluorescence was determined using a Tecan M200 plate reader using and excitation wavelength of 475 nm and an emission wavelength of 510 nm. Fluorescence values were corrected for cell densities based on OD600 - measurements. […]

The target of a further data set is T4, PylRS_AF_L407A (Methanosarcina mazei, UniProt Q8PWY1, L407A/Y306A/Y384F).
T4 construct: expressed in transfected cells
T4 sequence (Q8PWY1 whole entry Y306A/Y384F/L407A): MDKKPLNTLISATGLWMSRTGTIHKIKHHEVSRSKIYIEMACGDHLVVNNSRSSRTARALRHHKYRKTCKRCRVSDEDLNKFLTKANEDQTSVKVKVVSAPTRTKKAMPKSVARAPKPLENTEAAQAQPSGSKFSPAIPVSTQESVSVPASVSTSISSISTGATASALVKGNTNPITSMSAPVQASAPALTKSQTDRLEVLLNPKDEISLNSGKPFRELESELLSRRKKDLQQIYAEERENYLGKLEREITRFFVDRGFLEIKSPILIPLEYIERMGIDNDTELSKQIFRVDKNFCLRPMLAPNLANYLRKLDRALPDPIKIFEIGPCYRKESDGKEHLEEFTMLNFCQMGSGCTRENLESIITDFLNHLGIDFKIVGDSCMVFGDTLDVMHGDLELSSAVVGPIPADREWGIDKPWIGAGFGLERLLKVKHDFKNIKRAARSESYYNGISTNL
The data set is described as follows: PylRS_AF L407A-mediated amber suppression in GFP-Y39TAG (cellular GFP expression in E. coli). The class given is cell-based. As to conditions: pREP_PylRS_AF_L407A, pBAD_GFP-39TAG.
Text: as §2

For a further data set, the target named is T5, PylRS_AF_D408A (Methanosarcina mazei, UniProt Q8PWY1, D408A/Y306A/Y384F).
T5 construct: expressed in transfected cells
T5 sequence (Q8PWY1 whole entry Y306A/Y384F/D408A): as the sequence (Q8PWY1 whole entry Y306A/Y384F/L407A) above, with A407L, D408A counted along it
Nature of the data set: PylRS_AF D408A-mediated amber suppression in GFP-Y39TAG (cellular GFP expression in E. coli). Conditions: pREP_PylRS_AF_D408A, pBAD_GFP-39TAG. The class given is cell-based.
Text: as §2

The nature of the next data set: Solubility of the ncAA. The class given is physicochemical. As to conditions: limited solubility.
Setting [1] is: pBAD_GFP-39TAG, 1 mM ncAA, non-optimized conditions.

T1 sequence (Q8PWY1 whole entry Y306A/Y384F): as the sequence (Q8PWY1 whole entry Y306A/Y384F/L407A) above, with A407L counted along it
T2 sequence (Q8PWY1 whole entry): as the sequence (Q8PWY1 whole entry Y306A/Y384F/L407A) above, with A306Y, F384Y, A407L counted along it
T3 sequence (Q8PWY1 whole entry Y306G/Y384F): as the sequence (Q8PWY1 whole entry Y306A/Y384F/L407A) above, with A306G, A407L counted along it

Regarding “(S)-2-amino-6-(((benzo[h]quinolin-2-ylmethoxy)carbonyl)amino) hexanoic acid [ncAA 8]”, the “efficiency and accuracy of incorporation into peptides” value on PylRS_AF was “best results”.
As to `N[C@@H](CCCCNC(=O)c1cc2ccccc2cn1)C(=O)O` [ncAA 6, Nε-(isoquinoline-3-carbonyl)-L-lysine], the “yield of purified GFP-Y39→ncAA” value at PylRS_AF (setting [1]) was 1.4 mg/L. Further, the “efficiency and accuracy of incorporation into peptides” value at PylRS_AF is on record as “best results”.
With `N[C@@H](CCCCNC(=O)c1nc2ccccc2nc1O)C(=O)O` [Nε-(2-hydroxyquinoxaline-3-carbonyl)-L-lysine], on PylRS_AF (pBAD_GFP-39TAG), the “expression of full-length GFP by cellular fluorescence” value (shortened to “expression of full-length GFP”) is recorded as “no significant fluorescence increase compared to background”.
Consider `N[C@@H](CCCCNC(=O)c1cnc2ccccc2n1)C(=O)O` [ncAA 3, Nε-(quinoxaline-2-carbonyl)-L-lysine], for which, at PylRS_AF (setting [1]), the “yield of purified GFP-Y39→ncAA” value came out at 1.4 mg/L. At PylRS_wt, the “expression of full-length GFP” value was “failure of amber suppression” and the “GFP expression, SDS PAGE of Ni-NTA-purified GFP” value (shortened to “GFP expression, SDS PAGE”) is listed as “not recognized”.
Take `CC(C)(C)OC(=O)NCCCC[C@H](N)C(=O)O` [ncAA 2, Nε-(tert-butyloxycarbonyl)-L-lysine, reference compound]: the “GFP expression, SDS PAGE” value at PylRS_AF and on PylRS_GF was “significant expression” each time. On PylRS_wt, the “expression of full-length GFP” value is “detected”. The “cellular GFP expression” value on PylRS_AF_L407A and at PylRS_AF_D408A was “significant levels” throughout.
The solubility is the concentration that dissolves in the medium under given conditions. A lower solubility goes with little dissolved substance. On to `N[C@@H](CCCCNC(=O)c1ccc2ccccc2c1)C(=O)O` [ncAA 7, Nε-(naphtalene-2-carbonyl)-L-lysine], for which the “expression of full-length GFP” value on PylRS_AF (pBAD_GFP-39TAG) is recorded as “no expression”. Moreover, in “Solubility of the ncAA”, the solubility was approximately 100 µM (≈ 30 µg/mL).
On to `N[C@@H](CCCCNC(=O)c1ccc2ccccc2n1)C(=O)O` [ncAA 5, Nε-(quinoline-2-carbonyl)-L-lysine], for which the “yield of purified GFP-Y39→ncAA” value at PylRS_AF (standard expression conditions) is given as more than 11 mg/L; on PylRS_AF (setting [1]), 4.5 mg/L. The entries for the “GFP expression, SDS PAGE” value at PylRS_AF, at PylRS_wt and at PylRS_GF were “significant expression”, “not recognized” and “significant expression”, respectively. Moreover, the “cellular GFP expression” value on PylRS_AF_L407A and at PylRS_AF_D408A was “significant levels” throughout.
